Measurements reported in patent US5811073A, “Method for radioisotopic detection and localization of inflammation in a host” (President and Fellows of Harvard College, priority 1995, dated 1998).

Experiments:
[1] = system: sterile inflammatory lesions (pus capsule; turpentine oil); experiment: Gamma camera imaging of rats with sterile inflammation; type: in vivo, Male Sprague-Dawley rats; conditions: for Figure of Merit (FOM), equation (1): 0.2 mCi ^67 Ga-citrate; for Figure of Merit (FOM), equation (1) / Pus Capsule to Contralateral Tissue (T/B) Ratio, gamma camera imaging: 1.5 mCi/rat ^123 IUdR; for Figure of Merit (FOM), equation (1) / Pus Capsule to Contralateral Tissue (T/B) Ratio, gamma camera imaging / Figure of Merit (FOM), equation (2): n=4, mean ± SD; for Pus Capsule to Contralateral Tissue (T/B) Ratio, gamma camera imaging: 0.2 mCi/rat ^67 Ga
Protocol: Male Sprague-Dawley rats weighing between 150-200g were obtained from the Charles River Breeding Laboratories in Burlington, Mass. […] To anaesthetize the animals during testing, ketamine (40 mg/kg) and xylazine (10 mg/kg) were administered intra peritoneally (1.0 ml/kg) prior to surgical procedures. For the imaging studies, each animal received 1.5 ml/kg of a mixture of ketamine (75 mg/kg), xylazine (39 mg/kg) and acepromazine (0.75 mg/kg).
To induce a localized sterile inflammation, 0.1 ml of turpentine oil (Rectified Turpentine Oil for medical use, Gentry Corporation, Fair Lawn, N.J.) was injected into the left thigh muscle of anesthetized rats.
A further set of rats prepared as described in Examples 1 and 2 received intravenous injections of either ^123 IUdR (at a dose of about 1.5 mCi/rat) or gallium-67 citrate (at a dose of about 0.2 mCi/rat). After 1, 3 and 24 hours, rats from each group were anesthetized and imaged using a gamma camera (the General Electric STARCAM™ 400 fitted with parallel hole medium collimator). Anterior images were obtained 10^6 counts/frame except for the 24 h period for ^123 IUdR where a 15 min scan was carried out. A 20% window was present over the 159 keV photopeaks of ^67 Ga (93 kev, 184 keV, and 298 keV).
Regions of interest (ROI) were drawn over the inflamed areas (3×4 pixel) and over the contralateral area in each rat. Total counts in these regions were used to calculate Target to Background (T/B) ratios and to calculate Figure of Merit (FOM; statistical significance) values using either of the following equations:
FOM=(At -Ab)^2 /(At +Ab) (1)
At =counts in ROI (3×4) over pus capsule; and
Ab =counts in ROI (3×4) over contralateral muscle.
Equation (1) is derived from the Report of the National Council on Radiation Protection and Measurements, Nuclear Medicine, "Factors Influencing the Choice and Use of Radionuclides in Diagnosis and Therapy", Report No. 70, p.79 (NRCP, Bethesda, Md., 1982). Equation (2) is derived from Rubin et al., J. Nucl. Med. 30:385-389, 1989. For purposes of reference, the disclosures of each of these publications is incorporated herein.

[2] = Total photon efficiency of gamma camera; type: physicochemical
Protocol: For use in calculating dosages, the relative photon efficiencies of ^123 IUdR and of gallium-67 were determined.
Total Photon Efficiency of Gamma Camera
With Respect to ^123 IUdR and gallium-67
keV* Frequency X Efficiency

[3] = intravenous; adult man; ^123 I-iodine thyroid blocked; cited from earlier work
[4] = system: sterile and bacterial inflammation; conditions: i.v., 200-300 μCi gallium-67 citrate, 300-500 μCi ^99m Tc-human serum albumin, 100-150 μCi ^111 In-IgG or ^125 I-IgG; cited from earlier work

## O=C([O-])CC(O)(CC(=O)[O-])C(=O)[O-].[67Ga+3] [^67 Ga, gallium-67 citrate]
[1]; 1, 3, and 24 h, i.v.
  detection of the lesion in scintigraphic images (in words): can clearly detect the lesion
[1]; 1 h, i.v.
  Figure of Merit (FOM), equation (1): 1037 ± 215
  Pus Capsule to Contralateral Tissue (T/B) Ratio, gamma camera imaging: 2.76 ± 0.18
  Figure of Merit (FOM), equation (2): 1.75 ± 0.2
[1]; 3 h, i.v.
  Figure of Merit (FOM), equation (1): 1581 ± 143
  Pus Capsule to Contralateral Tissue (T/B) Ratio, gamma camera imaging: 3.61 ± 0.15
  Figure of Merit (FOM), equation (2): 2.61 ± 0.18
[1]; 3 hrs
  efficacy by imaging T/B ratio, comparison of agents (in words): equal
[1]; 24 h, i.v.
  Figure of Merit (FOM), equation (1): 1958 ± 149
  Pus Capsule to Contralateral Tissue (T/B) Ratio, gamma camera imaging: 5.09 ± 0.44
  Figure of Merit (FOM), equation (2): 4.09 ± 0.50
[1]; by 24 hrs
  imaging T/B ratios, comparison of agents (in words): higher T/B ratios
[1]; later time points (3 hrs and 24 hrs)
  FOM values, comparison of agents (in words): equal or higher FOM values
[2]; 91.3 keV
  Total Photon Efficiency: 0.0296
[2]; 93.3 keV
  Total Photon Efficiency: 0.37
[2]; 184.6 keV
  Total Photon Efficiency: 0.1326
[2]; 209 keV
  Total Photon Efficiency: 0.01515
[2]; 300.2 keV
  Total Photon Efficiency: 0.0415
[2]; sum over photopeaks (^67 Ga), 159 keV (^123 I)
  Total Photon Efficiency: 0.59
[3]
  whole body effective dose: 0.44 rad/mCi
[4]
  time of maximum target to background tissue ratio for image intensity: 3 h
